# Measured values taken from paper PMC5048338, “Discovery of 4,6-disubstituted pyrimidines as potent inhibitors of the heat shock factor 1 (HSF1) stress pathway and CDK9” (Medchemcomm, 2016).
# What was measured:
# [1] = target: CDK3/cyclin E (Homo sapiens, UniProt Q00526); assay: EMD Millipore (Eurofins) CDK panel; conditions: read-out: CDK3/cyclin E IC50; EMD Millipore screening panel, N = 1
# Experimental: Eurofins CDK panel assay conditions
# (§4) CDK1/cyclinB (h) is incubated with 8 mM MOPS pH 7.0, 0.2 mM EDTA, 0.1 mg/mL histone H1, 10 mM MgAcetate and [9-33P]-ATP (specific activity approx. 500 cpm/pmol, concentration as required). The reaction is initiated by the addition of the MgATP mix. After incubation for 40 minutes at room temperature, the reaction is stopped by the addition of 3% phosphoric acid solution. 10 μL of the reaction is then spotted onto a P30 filtermat and washed three times for 5 minutes in 75 mM phosphoric acid and once in methanol prior to drying and scintillation counting.
# (§5) CDK2/cyclinE (h) is incubated with 8 mM MOPS pH 7.0, 0.2 mM EDTA, 0.1 mg/mL histone H1, 10
# (§6) CDK3/cyclinE (h) is incubated with 8 mM MOPS pH 7.0, 0.2 mM EDTA, 0.1 mg/mL histone H1, 10 mM Mg Acetate and [9-33P]-ATP (specific activity approx. 500 cpm/pmol, concentration as
# [2] = target: CDK1/cyclin B (Homo sapiens, UniProt P06493); assay: EMD Millipore (Eurofins) CDK panel; conditions: read-out: CDK1/cyclin B IC50; EMD Millipore screening panel, N = 1
# Experimental: Eurofins CDK panel assay conditions
# as §4, §5, §6
# [3] = tested on: HSF1-stress pathway; assay: ArrayScan HSP72 protein assay (HSF1-stress pathway inhibition, 17-AAG induced)
# Experimental: To discover inhibitors of the HSF1-stress pathway, we employed an automated cellular imaging and analysis method (ArrayScan™) that quantifies the ability of a compound to suppress the expression of the HSF1-mediated inducible HSP70 isoform, HSP72.
# U2OS cells (1500 per well) were plated in 40 μL of DMEM media (containing 10% fetal calf serum and 2 mM Glutamax T-1) in costar 384-well plates and left overnight at 37 °C and 5% CO2 to adhere.
# treatment with compound, all wells except min wells were dosed with 17AAG diluted in DMSO (10
# °C and 5% CO2. The following day the cells were fixed by addition of 20 μL/well of 12% formaldehyde with 1:1700 Hoechst in PBS for 10 min at room temperature. The fixative was decanted and the wells washed once with 50 μL of phosphate buffer saline (PBS).The PBS was subsequently aspirated, and the cells were permeabilized by addition of 20 μL/well of PBS 0.3% Triton X-100 for 20 min at room temperature. The wells were then washed with 80 μL of PBS prior to the addition of 20 μL of combined primary and secondary antibodies diluted in PBS (1:10 000 mouse anti-Hsp72
# 11001 molecular probes), for 2 h at room temperature. The wells were then washed with 50 μL of PBS. Finally, 50 μL of PBS was added to each well, and the plates were sealed ready to analyze.
# Analysis was carried out using a Cellomics Arrayscan VTI instrument and the Cellomics Arrayscan Compartmental Analysis algorithm to measure cellular levels of HSP72.
# 100 μM to 0.1 μM plus a 12th point at 0.01 μM. Each well was backfilled with the required volume up to 120 nL of 100% DMSO to ensure a final 1% v/v DMSO concentration in the assay. In addition to the compound test wells, each plate carried maximum and minimum controls. Staurosporine at 10 μM was used to inhibit CDK2 activity for the minimum control. As a maximum control, 120 nL pure DMSO was added to the wells. Each plate contained at least 11 randomly distributed maximum and minimum controls. After the addition of compounds to the assay plates, the assay was performed as detailed above. Percentage conversion of substrate to product was used to calculate the effect of each compound on the kinase activity of CDK2/cyclinE. Enzyme inhibition model 3, non-linear curve fit analysis within OriginLab™ software was used to fit dose response curves and estimate the
# [4] = target: T1, CDK9/cyclin T1 (Homo sapiens, UniProt P50750); assay: EMD Millipore (Eurofins) CDK panel; type: biochemical
# T1 construct: purchased EMD Millipore screening panel (now Eurofins)
# Experimental: (§1) Therefore 4,6-pyrimidine 3 was submitted to a EMD Millipore CDK panel to assess potency across the selected CDK family members (Table 3). Modest activity was observed against several CDKs; […]. […]. page 4: […]
# (§2) mM Mg Acetate and [9-33P]-ATP (specific activity approx. 500 cpm/pmol, concentration as required). The reaction is initiated by the addition of the MgATP mix. After incubation for 40 minutes at room temperature, the reaction is stopped by the addition of 3% phosphoric acid solution. 10 μL of the reaction is then spotted onto a P30 filtermat and washed three times for 5 minutes in 75 mM phosphoric acid and once in methanol prior to drying and scintillation counting. […]
# CDK9/cyclinT1 (h) is incubated with 8 mM MOPS pH 7.0, 0.2 mM EDTA, 100 μM […]
# (§3) , 10 mM MgAcetate and […]
# as §2, with “(specific” for “mM Mg Acetate and [9-33P]-ATP (specific”
# [5] = target: T2, CDK2/cyclinE (Homo sapiens, UniProt P24941); assay: EMD Millipore (Eurofins) CDK panel; conditions: read-out: CDK2/cyclin E IC50; EMD Millipore screening panel, N = 1
# Experimental: Eurofins CDK panel assay conditions
# as §4, §5, §6
# [6] = target: T3, CDK5/p35 (Homo sapiens, UniProt Q00535); assay: EMD Millipore (Eurofins) CDK panel; type: biochemical; conditions: EMD Millipore screening panel, N = 1
# T3 construct: purchased EMD Millipore screening panel (now Eurofins)
# Experimental: Therefore 4,6-pyrimidine 3 was submitted to a EMD Millipore CDK panel to assess potency across the selected CDK family members (Table 3). Modest activity was observed against several CDKs; […]. […]. page 4:
# as §2, with “CDK5/p35 (h) is incubated with 8 mM MOPS pH 7.0, 0.2 mM EDTA, 0.1 mg/mL histone H1, 10 mM Mg” for “mM Mg”
# as §3
# as §2, with “(specific” for “mM Mg Acetate and [9-33P]-ATP (specific”
# [7] = target: T2, CDK2/cyclinE; assay: CDK2 enzyme assay: off-chip mobility shift assay; type: biochemical; set-up: purchased Upstate/Millipore
# Experimental: CDK2 enzyme assay: Off-chip Mobility SHIFT Assay
# All reagents were purchased from Sigma-Aldrich unless otherwise specified. Inhibition of CDK2/cyclinE activity was quantified using an off-chip incubation, mobility shift assay, which uses a microfluidic chip (Caliper Life Sciences) to measure the conversion of a fluorescent peptide substrate to phosphorylated product. An Off-chip Mobility Shift Chip with 12 sippers (Caliper Life Sciences) was prepared for use according to the manufacturer’s instructions using Coating Reagent #3 (Caliper Life Sciences). The off-chip incubation was carried out in white, 384-well, flat bottom, low volume assay plates (Greiner). 5 µL peptide mix (1.5 µM substrate peptide (fluorescein-QSPKKG-CONH2, Bachem) and 90 µM ATP in kinase base buffer (50 mM HEPES, pH7.5 (Calbiochem), 0.06% CHAPSO)) were added to each well of the prepared compound plates which contained 120 nL compound stock solution per well. The reaction was then initiated by the addition of 6 µL enzyme mix (1.0 nM CDK2/cyclin E (Upstate/Millipore), 1.0 mM DTT and 5.0 mM MgCl2 in kinase base buffer). After incubation for 60 min at room temperature, each reaction was terminated by the addition of 10µL of stop solution containing 100 mM HEPES pH 7.5 (Calbiochem), 0.033% Brij-35, 0.22% Coating Reagent #3 (Caliper Life Sciences), 44 mM EDTA and 5 % DMSO. Reaction products were analysed using a Caliper LabChip LC3000 instrument and peak height was used to calculate percentage conversion of substrate to product.
# For compound response testing, a 12 point compound concentration range was used. Compounds were acoustically dosed (Echo 555; Labcyte) into assay-ready plates using 11 half log intervals from 100 μM to […] plus a 12th point at 0.01 μM. Each well was backfilled with the required volume up to 120 nL of 100% DMSO to ensure a final 1% v/v DMSO concentration in the assay. In addition to the compound test wells, each plate carried maximum and minimum controls. Staurosporine at 10 μM was used to inhibit CDK2 activity for the minimum control. As a maximum control, 120 nL pure DMSO was added to the wells. Each plate contained at least 11 randomly distributed maximum and minimum controls. After the addition of compounds to the assay plates, the assay was performed as detailed above. Percentage conversion of substrate to product was used to calculate the effect of each compound on the kinase activity of CDK2/cyclinE. Enzyme inhibition model 3, non-linear curve fit analysis within OriginLab™ software was used to fit dose response curves and estimate the […]
# concentration of compound required to reduce the enzyme activity to 50% of the conversion calculated from an average of the maximum controls.
# Cell-based ELISA (Cellisa) for HSP72 expression
# To follow HSP72 protein expression, a product of HSF1 transcriptional activity, Cellisa was developed. Cells (5-8x10^4cells/ml) were seeded into 96-well plates and incubated at 37 °C for 48 h.
# Compounds were then added at a range of concentrations and incubated for 1 h before addition of 17-AAG (250 nM). Cells were then incubated for 18 h. The medium was removed and cells were fixed with fixing solution (4% paraformaldehyde, 0.3% TritonX-100 in PBS) for 30 min at 4 °C. The plates were then washed with 0.1% Tween-20/deionised water before blocking with 5% milk for 30 min at 37 °C. After washing the plates, HSP72 antibody (SPA-810, Enzo Life) was added for 1.5 h at 37 °C.
# Following 4 x washes, the plates were incubated with europium-labelled anti-mouse antibody (0.6ug/ml) in Delfia assay buffer (Perkin Elmer) for 1 h at 37 °C. After washing the plates, Delfia enhancement solution was added, shaken for 10 min before reading in the Envision plate reader (Perkin-Elmer) with excitation at 340 nm and emission at 615 nm. The plates were washed again before protein determination using the BCA assay. The europium counts were normalised for the amount of protein in each well. The 50% inhibitory concentration value of the compound was then calculated and presented. […]
# [8] = target: T4, CDK7/cyclin H/MAT1 (Homo sapiens, UniProt P50613); assay: EMD Millipore (Eurofins) CDK panel; type: biochemical; conditions: EMD Millipore screening panel, N = 1
# T4 construct: purchased EMD Millipore screening panel (now Eurofins)
# Experimental: as §1, §2, §3
# as §2, with “(specific” for “mM Mg Acetate and [9-33P]-ATP (specific”
# [9] = target: T5, CDK6/cyclin D3 (Homo sapiens, UniProt Q00534); assay: EMD Millipore (Eurofins) CDK panel; type: biochemical; conditions: EMD Millipore screening panel, N = 1
# T5 construct: purchased EMD Millipore screening panel (now Eurofins)
# Experimental: as §1, §2, §3
# as §2, with “(specific” for “mM Mg Acetate and [9-33P]-ATP (specific”
# T1 sequence (P50750 whole entry): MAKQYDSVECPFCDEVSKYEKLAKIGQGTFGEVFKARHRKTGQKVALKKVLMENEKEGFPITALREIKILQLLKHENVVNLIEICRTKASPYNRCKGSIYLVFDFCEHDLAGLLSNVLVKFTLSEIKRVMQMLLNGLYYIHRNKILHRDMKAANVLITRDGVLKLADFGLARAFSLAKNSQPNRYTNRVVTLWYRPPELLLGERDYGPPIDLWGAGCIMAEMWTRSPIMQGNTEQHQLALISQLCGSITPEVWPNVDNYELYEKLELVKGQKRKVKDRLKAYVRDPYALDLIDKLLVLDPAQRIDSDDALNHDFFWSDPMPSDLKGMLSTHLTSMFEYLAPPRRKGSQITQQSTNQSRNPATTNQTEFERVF
# T1 sequence (O60563 whole entry partner): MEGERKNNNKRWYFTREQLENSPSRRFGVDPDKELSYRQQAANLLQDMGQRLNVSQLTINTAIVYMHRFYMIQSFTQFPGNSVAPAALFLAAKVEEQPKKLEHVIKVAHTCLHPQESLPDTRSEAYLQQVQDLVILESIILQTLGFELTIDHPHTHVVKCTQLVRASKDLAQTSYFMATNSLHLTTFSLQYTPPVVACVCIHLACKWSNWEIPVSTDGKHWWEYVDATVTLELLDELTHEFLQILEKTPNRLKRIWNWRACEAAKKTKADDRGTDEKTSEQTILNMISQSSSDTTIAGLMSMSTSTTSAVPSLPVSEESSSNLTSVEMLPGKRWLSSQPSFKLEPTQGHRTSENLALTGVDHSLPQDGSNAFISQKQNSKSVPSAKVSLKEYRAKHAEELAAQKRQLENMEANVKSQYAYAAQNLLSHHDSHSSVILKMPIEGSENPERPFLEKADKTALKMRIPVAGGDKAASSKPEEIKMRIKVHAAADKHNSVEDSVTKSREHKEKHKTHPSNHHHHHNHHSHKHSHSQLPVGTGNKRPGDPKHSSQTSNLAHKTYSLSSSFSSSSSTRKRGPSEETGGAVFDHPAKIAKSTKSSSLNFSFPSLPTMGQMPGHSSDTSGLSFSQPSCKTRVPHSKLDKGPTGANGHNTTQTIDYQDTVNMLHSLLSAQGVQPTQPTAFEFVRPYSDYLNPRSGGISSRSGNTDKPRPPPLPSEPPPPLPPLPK
# T4 sequence (P50613 whole entry): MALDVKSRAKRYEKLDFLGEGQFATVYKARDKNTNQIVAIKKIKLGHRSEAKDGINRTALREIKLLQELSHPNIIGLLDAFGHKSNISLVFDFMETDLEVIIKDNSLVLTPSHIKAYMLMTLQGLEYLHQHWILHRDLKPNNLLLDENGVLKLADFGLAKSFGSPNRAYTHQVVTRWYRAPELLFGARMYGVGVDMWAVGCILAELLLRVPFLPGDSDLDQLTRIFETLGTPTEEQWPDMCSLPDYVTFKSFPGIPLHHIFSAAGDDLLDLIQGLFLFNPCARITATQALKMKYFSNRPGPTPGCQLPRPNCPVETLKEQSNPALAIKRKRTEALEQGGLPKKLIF
# T4 sequence (P51946 whole entry partner): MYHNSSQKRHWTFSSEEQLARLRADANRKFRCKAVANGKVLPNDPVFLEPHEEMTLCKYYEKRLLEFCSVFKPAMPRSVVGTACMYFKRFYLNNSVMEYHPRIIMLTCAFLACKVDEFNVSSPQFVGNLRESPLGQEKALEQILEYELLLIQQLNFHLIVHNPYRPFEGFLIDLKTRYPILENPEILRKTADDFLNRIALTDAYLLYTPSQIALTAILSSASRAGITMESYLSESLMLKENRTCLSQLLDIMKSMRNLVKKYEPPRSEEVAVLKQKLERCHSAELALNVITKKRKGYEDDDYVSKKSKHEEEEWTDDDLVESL
# T4 sequence (P51948 whole entry partner): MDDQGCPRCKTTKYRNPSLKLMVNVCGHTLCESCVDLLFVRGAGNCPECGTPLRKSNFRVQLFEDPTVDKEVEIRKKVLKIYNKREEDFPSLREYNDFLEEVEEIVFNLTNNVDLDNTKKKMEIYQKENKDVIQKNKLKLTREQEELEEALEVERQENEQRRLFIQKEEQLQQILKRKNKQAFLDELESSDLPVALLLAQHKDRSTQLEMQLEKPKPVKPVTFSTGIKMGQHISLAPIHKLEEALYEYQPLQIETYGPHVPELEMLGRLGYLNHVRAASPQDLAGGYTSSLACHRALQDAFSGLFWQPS
# T5 sequence (Q00534 whole entry): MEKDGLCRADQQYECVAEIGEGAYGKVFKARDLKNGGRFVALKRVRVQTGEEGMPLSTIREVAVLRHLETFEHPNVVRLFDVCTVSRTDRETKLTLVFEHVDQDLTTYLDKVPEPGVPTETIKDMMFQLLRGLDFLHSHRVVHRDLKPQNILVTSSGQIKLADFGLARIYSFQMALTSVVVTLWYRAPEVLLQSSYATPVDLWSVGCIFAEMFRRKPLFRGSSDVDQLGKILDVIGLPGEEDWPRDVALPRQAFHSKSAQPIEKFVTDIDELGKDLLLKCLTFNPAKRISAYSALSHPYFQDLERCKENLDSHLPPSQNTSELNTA
# T5 sequence (P30281 whole entry partner): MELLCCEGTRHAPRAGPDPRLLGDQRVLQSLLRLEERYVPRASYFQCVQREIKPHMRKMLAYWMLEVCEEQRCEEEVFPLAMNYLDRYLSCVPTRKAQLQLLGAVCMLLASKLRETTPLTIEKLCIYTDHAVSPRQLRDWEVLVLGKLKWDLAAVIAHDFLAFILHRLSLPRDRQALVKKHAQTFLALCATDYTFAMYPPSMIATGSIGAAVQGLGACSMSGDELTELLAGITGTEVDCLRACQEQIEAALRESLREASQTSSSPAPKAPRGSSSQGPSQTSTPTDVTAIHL
# Sequence of CDK1/cyclin B (P06493 whole entry): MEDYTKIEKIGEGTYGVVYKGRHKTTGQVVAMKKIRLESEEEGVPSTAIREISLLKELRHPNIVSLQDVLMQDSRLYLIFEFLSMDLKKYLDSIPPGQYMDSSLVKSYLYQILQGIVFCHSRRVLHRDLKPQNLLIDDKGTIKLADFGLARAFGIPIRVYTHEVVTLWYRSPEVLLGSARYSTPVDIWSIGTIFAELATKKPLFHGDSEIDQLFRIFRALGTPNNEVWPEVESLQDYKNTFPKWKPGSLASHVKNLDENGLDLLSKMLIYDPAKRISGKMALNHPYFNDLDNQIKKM
# Sequence of CDK1/cyclin B (P14635 whole entry partner): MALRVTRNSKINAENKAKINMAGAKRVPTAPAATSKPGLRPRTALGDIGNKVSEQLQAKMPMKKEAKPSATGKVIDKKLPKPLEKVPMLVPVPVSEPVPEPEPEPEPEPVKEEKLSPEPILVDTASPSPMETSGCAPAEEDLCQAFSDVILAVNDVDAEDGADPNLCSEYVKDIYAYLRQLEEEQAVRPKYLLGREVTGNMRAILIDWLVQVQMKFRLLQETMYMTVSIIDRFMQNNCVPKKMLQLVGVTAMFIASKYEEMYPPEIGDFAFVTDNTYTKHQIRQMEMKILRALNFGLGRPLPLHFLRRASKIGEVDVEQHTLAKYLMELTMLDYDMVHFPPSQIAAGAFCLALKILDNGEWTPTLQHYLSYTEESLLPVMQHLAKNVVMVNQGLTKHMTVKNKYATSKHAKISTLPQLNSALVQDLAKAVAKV
# T3 sequence (Q00535 whole entry): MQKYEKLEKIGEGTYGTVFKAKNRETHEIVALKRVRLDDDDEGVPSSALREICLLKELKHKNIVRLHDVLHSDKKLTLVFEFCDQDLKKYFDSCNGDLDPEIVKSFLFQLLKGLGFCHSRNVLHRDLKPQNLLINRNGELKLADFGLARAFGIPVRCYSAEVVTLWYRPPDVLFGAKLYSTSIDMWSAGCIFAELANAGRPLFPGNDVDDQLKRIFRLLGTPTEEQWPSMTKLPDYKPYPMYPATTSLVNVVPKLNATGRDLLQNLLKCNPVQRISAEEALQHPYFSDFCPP
# T3 sequence (Q15078 whole entry partner): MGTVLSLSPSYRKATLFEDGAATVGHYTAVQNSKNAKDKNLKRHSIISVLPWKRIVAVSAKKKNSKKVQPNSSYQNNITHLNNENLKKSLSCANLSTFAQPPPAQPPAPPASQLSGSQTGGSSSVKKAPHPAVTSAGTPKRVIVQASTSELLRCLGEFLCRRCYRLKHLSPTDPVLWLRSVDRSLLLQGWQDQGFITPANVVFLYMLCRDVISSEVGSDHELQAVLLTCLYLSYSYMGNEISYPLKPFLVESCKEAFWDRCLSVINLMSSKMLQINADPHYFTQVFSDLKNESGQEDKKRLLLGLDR
smiles,measurement,setting,value
CN(C)CCOc1ccc(Nc2cc(-n3cnc4ccccc43)ncn2)nc1 [Compound 3],IC50,[1],3.5 µM
same,IC50,[2],1800 nM
same,IC50,"[3]; Homo sapiens, U2OS, read-out: HSF1 IC50",80 nM
same,fold more potent in the HSF1-stress pathway assay compared with phenyl compound 2,[3]; relative to compound 2,approximately 15 fold
same,IC50,"[4]; EMD Millipore screening panel, N = 1",14 nM
same,ratio of activity CDK9/CyclinT1,"[4]; ratio between CDK2/7/9, CDK9 = 1, EMD Millipore Screening Panel",1
same,IC50,[5],2800 nM
same,IC50,[6],610 nM
same,IC50,"[7]; biochemical, CDK2/cyclinE, average of two determinations",580 nM
same,fold more active against CDK2 compared with phenyl compound 2,[7]; relative to compound 2,35 fold
same,IC50,[8],1100 nM
same,IC50,[9],1300 nM
